The test system of series [1] is T. gondii tachyzoites. Briefly: Transmission electron microscopy of tachyzoite internal structure. Conditions: 10 μM peptide, 2 h; Fig. 5. In kind it is cell-based, Toxoplasma gondii. The procedure:
TEM steps mainly include fixing, rinsing, dehydration, infiltration, embedding, etc. After the T. gondii samples were fixed in 4% glutaraldehyde, they were washed with a cacodylate buffer, and 1% osmium tetroxide was used to fix the sample at 4 ℃ for 2 h. The fixed samples were then washed and subjected to a series of gradient dewatering treatments before being embedded in epoxy resin and polymerized at 60 ℃. After polymerization, the sample was sliced and double stained. Finally, the internal structure of T. gondii tachyzoites treated with different polypeptides was observed by TEM (Tecnai G2 Spirit TWIN, USA).

Series [2] can be described thus: CCK-8 cytotoxicity assay. Format: cell-based. Conditions: human; CCK-8, HFFs, 24 h with peptide then 2 h with CCK-8, OD540; Fig. 3C. As to the method: […] After 24 h, 10 μL CCK-8 solution (APExBIO, USA) was added and incubated for another 2 h. The OD540 value was then measured and the cell mortality was calculated.
The test system of series [3] is tachyzoites of RH-GFP-TgAtg8 T. gondii strain. As to the kind of experiment: Fluorescence microscopy killing assay with RH-GFP-TgAtg8 tachyzoites. Conditions: for fluorescence area and intensity of RH-GFP-TgAtg8 tachyzoites vs control: 10 μM peptide, 2 h incubation, fluorescence microscopy, Fig. 2C, D; for concentration dependence of killing effect (fluorescence area and intensity): 5 μM, 10 μM, 20 μM, room temperature, 2 h, Fig. 3A, B. Format: cell-based, Toxoplasma gondii. The procedure:
To explore the concentration dependence of the polypeptides against T. gondii, XYP1-derived peptide solutions with different concentration gradients (5 μM, 10 μM, 20 μM) were prepared and then mixed with T. gondii tachyzoites at room temperature. After incubation for 2 h, the anti-T. gondii effect was observed by fluorescence microscopy.

The test system of series [4] is T. gondii RH strain tachyzoites. As to the kind of experiment: Mouse survival assay after T. gondii RH infection. The settings on record: mice i.p. 1000 RH strain tachyzoites; for effect on survival time of infected mice (in words): peptide after 4 h, 4 mg/kg, Fig. 3E; for survival of infected mice prolonged to: peptide injected after 4 h, 4 mg/kg (legend; method says 4 mg/mL), control group all died at 127.1 h. In kind it is in vivo. As to the method: The anti-T. gondii effect of peptides in vivo was investigated through a mouse survival experiment. The experiment was divided into a PBS control group and different polypeptide groups. Each group of mice was intraperitoneally injected with 1000 RH strain tachyzoites. After 4 h, the pre-prepared 4 mg/mL peptides were injected into the mice. The survival time of mice in each group was recorded and analyzed statistically.

The test system of series [5] is T. gondii tachyzoites. Briefly: Trypan blue staining (exclusion) assay, killing of tachyzoites. In kind it is cell-based, Toxoplasma gondii. The settings on record: 10 μM peptide, 2 h incubation with T. gondii, optical microscope, Fig. 2A. The procedure:
When T. gondii died, trypan blue was able to cross its cell membrane and enter the interior, making it blue. Trypan blue exclusion test was undertaken as mentioned before. Firstly, 10 μM different XYP1-derived peptides were prepared, incubated with T. gondii for 2 h, and then the trypan blue dye was added. After 3–5 min, the survival rate of T. gondii was observed by optical microscope and the mortality rate was calculated.

In series [6] the test system is human red blood cells. Briefly: Hemolysis assay. Format: cell-based. The settings on record: 1% human red blood cells in PBS, 37 ℃, 30 min, OD540. The procedure: The hemolytic activity of peptides was determined by the amount of hemoglobin released from lysed human red blood cells. Normal human blood was mixed 1:1 with Aldrin’s fluid, followed by centrifuging, and phosphate buffered saline (PBS) was added to make 1% red blood cell resuspension. The 50 μL resuspension was mixed with 50 μL PBS, 1% Triton X-100, 70% DMSO (Sigma, USA), and different concentrations of polypeptides, then incubated at 37 ℃ for 30 min. After centrifugation, the OD540 value of the supernatant was measured by Microplate reader (Agilent, USA) and the hemolysis rate was calculated.

Series [7] deals with T. gondii tachyzoites. Conditions: 10 μM XYP1; previous study; cited from earlier work. As to the method:
Therefore, trypan blue staining assay was used to compare the killing activity in vitro of 10 μM different derived peptides and XYP1.

The test system of series [8] is TP53. Briefly: qRT-PCR of TP53 transcription. Format: cell-based, human. The settings on record: qPCR, XYP1 treatment group vs control; Fig. 7G. The procedure:
(§1) The control group consisted of HFF cells infected with T. gondii without XYP1, and the experimental group was treated with XYP1 for 8 h. Total RNAs were extracted from the control and experimental groups and reverse to cDNA, with three replicates per group. After the steps of end repair, A-tailing, and adapter ligation, the samples were proceeded with polymerase chain reaction (PCR) amplification and Illumina transcriptome sequencing in the OE biotech Co., Ltd. (Shanghai, China). Trimmomatic software was used to filter the raw data to obtain high-quality data information. Subsequently, the filtered data was aligned and assembled using HISAT2 [30] and StringTie tool. The number of reads mapped to each gene in each sample was calculated.
(§2) The total RNAs from different samples were extracted using the classical Trizol method. The PerfectStart Uni RT&qPCR Kit (TransGen Biotech, China) was used to efficiently reverse transcribe RNA into cDNA and synthesize the first strand. The qRT-PCR reaction system contains cDNA temple, forward and reverse primers, double stranded DNA fluorescent dye (SYBR Green I), DNA polymerase, dNTP and buffer. The PCR reaction was performed using a two-step amplification procedure: 94 ℃ for 30 s (pre-denaturation) followed by 40 cycles of 94 ℃ for 5 s and 60 ℃ for 30 s. Finally, the relative expression of each gene was calculated by 2^−∆∆Cq method.
On the technique in general: Quantitative PCR measures a nucleic acid by following its amplification.

Series [9] relates to IL-17. As to the kind of experiment: qRT-PCR of IL-17 transcription. Format: cell-based, human. Conditions: qPCR, XYP1 treatment group vs control; Fig. 7F. The procedure: as §1, §2
Series [10] concerns NF-kB. As to the kind of experiment: qRT-PCR of NF-kB transcription. Format: cell-based, human. Conditions: qPCR, XYP1 treatment group vs control; Fig. 7H. The procedure: as §1, §2

Peptide text beside a SMILES is read from it.

The values that follow come from article PMC11373213, “Anti-Toxoplasma gondii effects of XYP1-derived peptides and regulatory mechanisms of XYP1” (Parasites & Vectors, 2024).

What is called IC50 is the midpoint of a concentration-inhibition curve. A lower IC50 goes with inhibition by little substance.

With `CC[C@H](C)[C@H](NC(=O)[C@H](CCCCN)NC(=O)[C@H](CCCCN)NC(=O)[C@H](C)NC(=O)[C@@H](NC(=O)[C@H](CCCCN)NC(=O)[C@H](CCCCN)NC(=O)[C@H](CCSC)NC(=O)[C@H](CCCCN)NC(=O)[C@H](CCCCN)NC(=O)[C@H](Cc1ccccc1)NC(=O)[C@H](Cc1c[nH]c2ccccc12)NC(=O)[C@H](CCCCN)NC(=O)[C@H](CCCCN)NC(=O)[C@@H](N)CC(C)C)[C@@H](C)CC)C(=O)N[C@@H](C)C(=O)N[C@@H](CCCCN)C(=O)N[C@@H](CC(C)C)C(=O)O` [XYP1-18-1] (H-LKKWFKKMKKIAKKIAKL-OH; N-terminus and C-terminus assumed), the “damage of internal structure of tachyzoites (TEM)” value (“damage” for short) in series [1] is “shrinkage and vacuolization, but also complete dissolution of the tachyzoites observed”. This molecule yielded an IC50 at 24 h in series [2] of 45.6 µM. The “fluorescence area and intensity of RH-GFP-TgAtg8 tachyzoites vs control” value in [3] is listed as “significantly reduced compared with the control group”. Moreover, in [4], the “effect on survival time of infected mice (in words)” value is listed as “poor effect on prolonging the survival time of mice” and the “survival of infected mice prolonged to” value amounted to 145 h. For the same molecule, the “anti-T. gondii killing activity (toxoplasma mortality, trypan blue)” value (“anti-T. gondii killing activity” for short) in series [5] was “good anti-T. gondii activity”.
For the molecule `CC[C@H](C)[C@H](NC(=O)[C@H](Cc1ccccc1)NC(=O)[C@H](CCCCN)NC(=O)[C@H](C)NC(=O)[C@@H](NC(=O)[C@H](CO)NC(=O)[C@H](CCCCN)NC(=O)[C@H](CCSC)NC(=O)[C@H](C)NC(=O)[C@H](CCCCN)NC(=O)[C@H](Cc1ccccc1)NC(=O)[C@H](Cc1c[nH]c2ccccc12)NC(=O)[C@H](CCCCN)NC(=O)[C@@H](NC(=O)[C@@H](N)CCCCN)[C@@H](C)CC)[C@@H](C)CC)C(=O)N[C@@H](C)C(=O)N[C@@H](CCCCN)C(=O)N[C@@H](CC(=O)O)C(=O)O` [XYP1-18] (H-KIKWFKAMKSIAKFIAKD-OH; N-terminus and C-terminus assumed), in [1], the “damage” value is “severe deformation and rupture of the surface membrane, but also serious shrinkage and vacuolization internally”. Moreover, in [2], the half-maximal inhibitory concentration (IC50) at 24 h stood at 80.6 µM. In series [3], the “concentration dependence of killing effect (fluorescence area and intensity)” value is “statistically different”; the “fluorescence area and intensity of RH-GFP-TgAtg8 tachyzoites vs control” value is on record as “significantly reduced compared with the control group”. Besides, in [4], the “effect on survival time of infected mice (in words)” value is “no significant difference between XYP1-18 and XYP1”; the “survival of infected mice prolonged to” value came out at 191 h. In [6] (1.25 μM to 80 μM), the “hemolysis at 1.25 μM to 80 μM” value is listed as “almost no hemolysis”. For the same molecule, the “hemolysis at the highest concentration (160 μM)” value in series [6] (160 μM) is on record as “only minor hemolysis”. Moreover, the “anti-T. gondii killing activity” value in series [5] is listed as “comparable to XYP1”.
Take `CC[C@H](C)[C@H](NC(=O)[C@H](Cc1ccccc1)NC(=O)[C@H](CCCCN)NC(=O)[C@H](C)NC(=O)[C@@H](NC(=O)[C@H](CO)NC(=O)[C@H](CCCCN)NC(=O)[C@H](CCSC)NC(=O)[C@H](C)NC(=O)[C@H](CCCCN)NC(=O)[C@H](Cc1ccccc1)NC(=O)[C@H](Cc1c[nH]c2ccccc12)NC(=O)[C@H](CCCCN)NC(=O)[C@@H](NC(=O)[C@@H](N)CCCCN)[C@@H](C)CC)[C@@H](C)CC)C(=O)N[C@@H](C)C(=O)N[C@@H](CCCCN)C(=O)N[C@@H](CC(=O)O)C(=O)N[C@@H](CCC(N)=O)C(=O)N[C@@H](CC(C)C)C(=O)N[C@@H](CCCCN)C(=O)N[C@@H](CCCCN)C(=O)N[C@@H](Cc1c[nH]cn1)C(=O)N[C@@H](CC(C)C)C(=O)O` [XYP1] (H-KIKWFKAMKSIAKFIAKDQLKKHL-OH; N-terminus and C-terminus assumed): in [7], the “killing of T. gondii tachyzoites” value is “can kill T. gondii tachyzoites”. Further, the “damage” value in series [1] is reported as “ruptures in the surface membrane, but also different degrees of vacuolization internally”. In addition, the concentration for half-maximal inhibition (IC50) at 24 h in series [2] was determined as 33.6 µM. In series [3], the “concentration dependence of killing effect (fluorescence area and intensity)” value was “statistically different”. In series [4], the “survival of infected mice prolonged to” value is reported as 208.5 h. The “hemolysis at 1.25 μM to 10 μM” value in series [6] (1.25 μM to 10 μM) is “almost no hemolysis reaction was observed”. Besides, the “anti-T. gondii killing activity” value in series [5] is listed as “consistent with the previous findings”. The “transcription level of TP53” value in series [8] is given as “down-regulated”. The “transcription level of IL-17” value in series [9] was “down-regulated”. For the same molecule, in series [10], the “transcription level of NF-kB” value is on record as “up-regulated”.
